Measured values taken from ChEMBL document CHEMBL3045494, “Inhibitory effect and structureactivity relationship of some Biginelli-type pyrimidines against HSV-1” (Med Chem Res, 2013).
Calls of active or inactive are those of the source. Unless noted, the rule behind the calls is not given here.

Tests used:
Human alphaherpesvirus 1 = experiment: Antiviral activity against Human herpesvirus 1 strain KOS infected Vero cells after 72 hr by plaque reduction assay; assay type: functional, organism-based
Vero = experiment: (§1) Cytotoxicity against Chlorocebus aethiops (African green monkey) Vero cells after 72 hr by XTT assay; assay type: cell-based; settings: chlorocebus sabaeus, vero, 72 h
[1] = as §1; assay type: cell-based; settings: chlorocebus sabaeus, Vero cells
[2] = Selectivity index, ratio of CC25 for African green monkey Vero cells to IC25 for Herpes simplex virus 1 KOS; assay type: toxicity, cell-based; settings: read-out: Selectivity Index
[3] = Therapeutic index, ratio of CC50 for African green monkey Vero cells to IC50 for Herpes simplex virus 1 KOS; assay type: cell-based; settings: read-out: Ratio CC50/IC50
[4] = Human alphaherpesvirus 1, KOS, Vero, 72 h
[5] = Human alphaherpesvirus 1, KOS, Vero, 72 h, read-out: IC50

Row | Compound | IC25 (Human alphaherpesvirus 1) | IC50 (Human alphaherpesvirus 1; vero) | CC25 (Vero) | CC50 at 72 h [1] [µM] | selectivity ratio [2] | selectivity ratio [3] | IC25 (Human alphaherpesvirus 1; [4]) [µM] | IC50 (Human alphaherpesvirus 1; [5]) [µM] | CC50 (Vero)
1 | CC1=C(C(=O)Nc2ccccc2Cl)C(c2cnc(CS)n2NCc2ccccc2)NC(=O)N1 (centres undefined) | inactive | Not Active | > 100 µM | > 100 | < 1 | < 1 |  |  | 
2 | CC1=C(C(=O)Nc2ccccc2Cl)C(c2cccc(Br)c2)NC(=O)N1 (centres undefined) |  |  | 54.7 µM | > 100 | 34.1 | > 1 | 1.6 | 95.4 | 
3 | CC1=C(C(=O)OC(C)(C)C)C(c2cccs2)NC(=O)N1 (centres undefined) | inactive | Not Active | 76.7 µM | > 100 | < 1 | < 1 |  |  | 
4 | CC1=C(C(=O)Nc2ccccn2)C(c2cccs2)NC(=O)N1 (centres undefined) |  |  | > 100 µM | > 100 | > 1 | > 1 | 97.7 | > 100 | 
5 | COc1cccc(C2NC(=O)NC(C)=C2C(=O)Nc2ccccc2Cl)c1 (centres undefined) |  |  | 45.6 µM | > 100 | 5 | > 1 | 9.1 | > 100 | 
6 | CC1=C(C(=O)Nc2ccc(Cl)cc2)C(c2cccs2)NC(=O)N1 (centres undefined) |  |  | 83.2 µM | > 100 | 7.1 | > 1.6 | 11.7 | 59.7 | 
7 | CCOC(=O)C1=C(C)N=C(S)NC1c1cccs1 (centres undefined) |  |  | 87.3 µM | 100 | 6.2 |  | 14 | > 100 | 
8 | CC1=C(C(=O)Nc2ccc(Cl)cc2)C(c2cnc(CS)n2Nc2ccccc2)NC(=O)N1 (centres undefined) |  |  | 53.9 µM | > 100 | 1.4 | > 1 | 37 | > 100 | 
9 | CC1=C(C(=O)Nc2ccc(F)cc2)C(c2ccccc2)NC(=O)N1 (centres undefined) |  |  | 43.8 µM | > 100 | 48.6 | > 1 | 0.9 | > 100 | 
10 | CCCOC(=O)C1=C(C)NC(=S)NC1c1cccs1 (centres undefined) |  |  | 0.5 µM | 23.6 | 0.3 | 2.9 | 1.5 | 7.9 | 
11 | CC1=C(C(=O)Nc2cccnc2)C(c2cccs2)NC(=O)N1 (centres undefined) | inactive | Not Active | > 100 µM | > 100 | < 1 | < 1 |  |  | 
12 | CC1=C(C(=O)Oc2ccccc2)C(c2ccccc2)NC(=O)N1 (centres undefined) |  |  | 98 µM | > 100 | 9.4 | > 1.1 | 10.4 | 89.7 | 
13 | COc1ccc(C2NC(=O)NC(C)=C2C(=O)Nc2ccccc2Cl)cc1 (centres undefined) |  |  | 17.6 µM | > 100 | 25.1 | > 1.5 | 0.7 | 63.6 | 
14 | CC1=C(C(=O)Nc2cccc(Cl)c2)C(c2cnc(CS)n2Nc2ccccc2)NC(=O)N1 (centres undefined) |  |  | 71.1 µM | 98.6 | 5.1 | < 0.9 | 13.7 | > 100 | 
15 | COC(=O)C1=C(C)NC(=S)NC1c1ccc(Br)cc1 (centres undefined) |  |  | 69.1 µM | 97.2 | 0.8 | 1.22 | 67.7 | 82.7 | 
16 | CC1=C(C(=O)Nc2ccccc2Cl)C(c2ccc(C)cc2)NC(=O)N1 (centres undefined) |  |  | > 100 µM | > 100 | > 1250 | > 10 | 0.08 | 10.5 | 
17 | CC1=C(C(=O)Nc2cccc(Cl)c2)C(c2cccs2)NC(=O)N1 (centres undefined) | inactive | Not Active | 87.9 µM | > 100 | < 1 | < 1 |  |  | 
18 | CC1=C(C(=O)NC2CCCCC2)C(c2ccccc2)NC(=O)N1 (centres undefined) |  |  | 7.6 µM | > 100 | 38 | > 1 | 0.2 | > 100 | 
19 | CC1=C(C(=O)OC(C)C)C(c2cccs2)NC(S)=N1 (centres undefined) |  |  | 5.7 µM | 53.9 | 0.6 | 1.9 | 8.5 | 28 | 
20 | CCOC(=O)C1=C(C)NC(=S)NC1c1ccc(Br)cc1 (centres undefined) |  |  | 9.3 µM | 38.9 | 0.1 | 0.31 | 87.3 | 122 | 
21 | CC1=C(C(=O)Nc2cccc(Cl)c2)C(c2cnc(CS)n2NCc2ccccc2)NC(=O)N1 (centres undefined) |  |  | 100 µM | > 100 | 1.8 | > 1.4 | 53.8 | 67 | 
22 | CC1=C(C(=O)Nc2ccccc2Cl)C(c2ccccc2Cl)NC(=S)N1 (centres undefined) |  |  | 24.5 µM | > 100 | 35 | > 1 | 0.7 | > 100 | 
23 | CC1=C(C(=O)Nc2ccc(Br)cc2)C(c2ccccc2)NC(=O)N1 (centres undefined) |  |  | 71.3 µM | > 100 | 356 | > 2.3 | 0.2 | 43.3 | 
24 | CC1=C(C(=O)OCC(C)C)C(c2cccs2)NC(S)=N1 (centres undefined) |  |  | 18.4 µM | 87.5 | 30.6 | 48.6 | 0.6 | 1.8 | 
25 | CC1=C(C(=O)Nc2ccccc2Cl)C(c2ccc(Br)cc2)NC(=O)N1 (centres undefined) |  |  | 84.3 µM | > 100 | 936 | > 3 | 0.09 | 32.7 | 
26 | CC1=C(C(=O)Nc2ccccc2Cl)C(C(C)c2ccccc2)NC(=O)N1 (centres undefined) |  |  | 1.7 µM | 91.5 | 0.07 | < 1 | 21.3 | > 100 | 
27 | CC1=C(C(=O)Nc2ccccc2Cl)C(c2cnc(CS)n2Nc2ccccc2)NC(=O)N1 (centres undefined) | inactive | Not Active | 97.7 µM | > 100 | < 1 | < 1 |  |  | 
28 | CC1=C(C(=O)Nc2ccccc2Cl)C(c2ccccc2Br)NC(=O)N1 (centres undefined) |  |  | 58.8 µM | > 100 | 4.2 | > 1.6 | 13.9 | 59.8 | 
29 | CC1=C(C(=O)Nc2ccccc2Cl)C(c2cccs2)NC(=O)N1 (centres undefined) |  |  | 98.9 µM | > 100 | 3.9 | > 1.2 | 25.2 | 81.5 | 
30 | CC1=C(C(=O)Nc2ccccc2Cl)C(c2cccc([N+](=O)[O-])c2)NC(=O)N1 (centres undefined) |  |  | Non-toxic |  | > 1000 | > 2.1 | 0.1 | 46.1 | Non-toxic
